Results published in patent US20230372263A1, “METHODS AND COMPOSITIONS FOR TREATING AMYOTROPHIC LATERAL SCLEROSIS” (Amylyx Pharmaceuticals, Inc., priority 2022, published 2023).

Tests used:
[1] = clinical; type: in vivo, human; conditions: human, in vivo; for AUC(0-t): AUC(0-last)
Description: (§1) • Protocol AMX3500: sparse sampling in 87 subjects with ALS. Approximately 2 samples are collected for each subject, 1 or 4 hours post dose following 12 and 24 weeks of treatment. • Protocol A35-002: rich sampling in 14 healthy adults. Approximately 21 samples are collected over 24 hours for each subject on two occasions, once following a high fat meal and the other under fasting conditions.
A total of 14 healthy subjects were enrolled in order to have no fewer than 12 subjects complete. A predefined mix of gender was selected.
Each study period followed the same study design (FIG. 1). Subjects were screened for inclusion in the study up to 28 days before dosing. Subjects were admitted to the clinical unit during Study Day −2 for Period 1 and Day −1 for Period 2 and were dosed in the morning of Day 1. On the night prior to Period 1 the subjects in the fasted/fed or fed/fasted sequence were fasted for a minimum of 10 h prior to dosing.
The solution was stirred until the powder was mostly dissolved.
Any departures from the intended regimen were recorded in the eCRFs. All dose administrations were performed in the study center under the supervision of appropriately trained staff.
Subjects were provided with a light snack and were then fasted from all food and drink (except water) until the following morning, when they were provided with a high-fat breakfast. The breakfast was consumed over a maximum period of 25 min, and dosing occurred 30 min after the start of breakfast. Subjects were encouraged to eat their meal evenly over the 25 min period. For this trial the subject was deemed compliant if they consumed >80% of the high-fat standard breakfast.
The subjects in the 24-h baseline and in the fasted condition Period remained fasted up to 4 h post-dose and were offered a standardized meal to be taken between 4.00 and 5.00 h post-dose. Subjects in the fed condition were fasted overnight and received a high-fat standard breakfast 30 minutes pre-dose and then remained fasted for 4.00 to 5.00 h post-dose when they received a standardized meal.
Venous blood samples were withdrawn via an indwelling cannula or by venipuncture according to the time schedule presented in Table 5 Table, Table 6, and Table 7.
Blood samples of approximately 4 mL were collected into 4 mL BD Vacutainer Plastic K2EDTA Tubes with Lavender Hemogard Closure, and was gently inverted approximately 8 times. The tubes were then immediately stored on ice and processed within 60 min of collection by centrifugation at 1500 g for 10 min at 2 to 8° C. The resultant plasma was separated equally into 2 aliquots and transferred to 2 mL appropriately labelled primary and backup polypropylene cryovials.
Actual elapsed time from dosing was to be used for the final plasma PK parameter calculations after database lock.

[2] = clinical; type: in vivo, human; conditions: human, in vivo; for concentration at 1 h / concentration at 4 h: both sexes
Description: • 1. […] Treatment is administered as one sachet daily for the initial 3 weeks and then increased if tolerated to one sachet twice daily. […] Sampling times are randomly assigned to occur at either 1 or 4 hours post-dose at the 12 week visit and the other time at the 24 week visit. • Treatment duration: 24 weeks • 2.
as §1
Subjects were advised to take the drug before a meal. […] Referred to as protocol 3500.
A study was carried out to examine plasma concentration data in various subgroups for the protocol AMX3500 Phase 2 study. This example summarizes plasma concentrations of TUDCA and 2 metabolites, also related acids, UDCA, the de-conjugated TUDCA metabolite, and GUDCA, the glycine conjugate of UDCA.
For each of the 2 treatment arms (treatment and placebo), subjects were further divided into 2 sample sequence groups for schedule of pharmacokinetic measurements: • 1. 1 hour post-dose for the Week 12 visit and 4 hours post-dose for the Week 24 visit • 2. 4 hours post-dose for the Week 12 visit and 1 hour post-dose for the Week 24 visit
Twenty-four distinct medication descriptions were identified as containing antibiotics. Dates of antibiotic use were compared to dates of visits and if the antibiotic use date range contained the visit date, then that visit was flagged for that subject's data for antibiotic use. […] These antibiotics could hypothetically be in a subject's body still if this event occurred. However, it was observed that only a small number of subjects took antibiotics near to visit dates but not overlapping visit dates. In other cases, subjects were taking antibiotics on the date of one visit but not the others. Some subjects are therefore in both categories of antibiotic use and nonuse, though no individual visits for a subject are counted in both categories at the same time.
Subjects whose race were recorded as “Black” or “African American” were evaluated according to the standard Glomerular Filtration Rate (eGFR) rating for that race. The other standard eGFR rating used, sometimes referred to as a standard for people who are White, was applied to subjects of all other races. These rates were analyzed as continuous in mL/min/1.73 m2 units and as the following categories: • 1. Less than 90 mL/min/1.73 m^2 • 2. Equal to or greater than 90 mL/min/1.73 m^2
Age was converted from a continuous variable to 2 categories: • 1. As old or older than 65 years old • 2. Younger than 65 years old
All boxplots boxes are bounded at the 25th and 75th percentile, with whiskers at 10th and 90th percentiles, outliers beyond that as points, the black line as median, and red line as mean.

[3] = Steady-state plasma concentration

Structure (SMILES): C[C@H](CCC(=O)NCC(=O)O)[C@H]1CC[C@H]2[C@@H]3[C@@H](O)C[C@@H]4C[C@H](O)CC[C@]4(C)[C@H]3CC[C@]12C [GUDCA, glycoursodeoxycholic acid]
- Tmax ([1]; both sexes, Tmax Median): 16 h
- AUC(0-t) ([1]; both sexes, po, Geometric Mean): 4140 ng·h/mL
- Cmax ([1]; both sexes, po): 381 ng/mL
- Cmax ([1]; both sexes, po, Geometric Mean): 381 ng/mL
- half-life ([1]; both sexes, po, T1/2, Geometric Mean): 12.7 h
- AUC(0-last) Ratio of adj geo means Fed/Fasted (GMR) ([1]; both): 137.31%
- AUG(0-last) ([1]; both): 5060 (88.2) ng.h/ml
- Cmax Ratio of adj geo means Fed/Fasted (GMR) ([1]; both): 134.45%
- MR Cmax (metabolite to parent ratio) ([1]; both): 0.571
- T1/2 ([1]; both): 12.744 h
- increase in AUC(0-last), fed relative to fasted ([1]; both): ~37%
- peak exposure to metabolite as % of that for parent ([1]; both): approximately 51%
- time of maximum plasma concentrations (range) ([1]; both): 6.00 to 20.00 h
- total exposure to metabolite based on AUC(0-last) as % of that for parent ([1]; both): approximately 95%
- AUC(0-last), Adj Geo Mean ([1]; both, po): 4200 ng·h/mL
- AUC(0-last), Max ([1]; both, po): 12000 ng·h/mL
- AUC(0-last), Median ([1]; both, po): 3400 ng·h/mL
- AUC(0-last), Min ([1]; both, po): 1840 ng·h/mL
- AUC(0-last), Ratio of adj geo means Fed/Fasted ([1]; both, po): 137.31%
- Cmax, Adj Geo Mean ([1]; both, po): 382 ng/mL
- Cmax, Max ([1]; both, po): 1420 ng/mL
- Cmax, Median ([1]; both, po): 353 ng/mL
- Cmax, Min ([1]; both, po): 143 ng/mL
- Cmax, Ratio of adj geo means Fed/Fasted ([1]; both, po): 134.45%
- Lambda-z, Geometric Mean ([1]; both, po): 0.0543 h⁻¹
- Lambda-z, Max ([1]; both, po): 0.0544 h⁻¹
- Lambda-z, Median ([1]; both, po): 0.0543 h⁻¹
- Lambda-z, Min ([1]; both, po): 0.0544 h⁻¹
- T1/2, Max ([1]; both, po): 12.74 h
- T1/2, Median ([1]; both, po): 12.744 h
- T1/2, Min ([1]; both, po): 12.74 h
- Tmax, Max ([1]; both, po): 20.00 h
- Tmax, Min ([1]; both, po): 6.00 h
- MR AUC(0-last) [1]: 1.056
- concentration at 1 h ([2]; Plasma Concentration, Mean): 1020 ng/mL
- concentration at 4 h ([2]; Plasma Concentration, Mean): 1510 ng/mL
- concentration at 1 h ([2]; Plasma Concentration, Median): 773 ng/mL
- concentration at 4 h ([2]; Plasma Concentration, Median): 1500 ng/mL
- concentration at 1 h [2, 3]: 1070 ng/mL
- concentration at 4 h [2, 3]: 1320 ng/mL
- steady state reached by ([2]; both): ≤ 12 Week
- Plasma Concentration, Median ([2]; both, 1 h): 815.0 ng/mL
- Plasma Concentration, Median ([2]; both, 4 h): 1190.0 ng/mL
- Plasma Concentration, Min ([2]; both, 4 h): 20.0 ng/mL
- accumulation in plasma after once- or twice-daily dosing [2]: substantial accumulation
- effect of age on steady-state plasma concentration [2]: no difference
- effect of mild renal insufficiency on steady-state plasma concentration [2]: no discernible difference
- steady-state plasma concentrations versus endogenous levels [2]: at least an order of magnitude higher than endogenous levels

Structure (SMILES): C[C@H](CCC(=O)O)[C@H]1CC[C@H]2[C@@H]3[C@@H](O)C[C@@H]4C[C@H](O)CC[C@]4(C)[C@H]3CC[C@]12C [UDCA, ursodeoxycholic acid]
- AUC(0-inf) ([1]; both sexes, AUC(0-inf)): 11300 ng·h/mL
- AUC(0-t) ([1]; both sexes): 5540 ng·h/mL
- Cmax ([1]; both sexes): 639 ng/mL
- half-life ([1]; both sexes, elimination half-lives (range)): 3.01 to 7.58 h
- Cmax ([1]; both sexes, po): 639 ng/mL
- AUC(0-inf) ([1]; both): 11300 ng·h/mL
- AUC(0-last) Ratio of adj geo means Fed/Fasted (GMR) ([1]; both): 136.34%
- AUG(0-last) ([1]; both): 5540 (72.5) ng.h/ml
- Cmax Ratio of adj geo means Fed/Fasted (GMR) ([1]; both): 112.17%
- Tmax Median ([1]; both): 6.000 h
- increase in AUC(0-last), fed relative to fasted ([1]; both): ~36%
- increase in Cmax, fed relative to fasted ([1]; both): approximately 12%
- peak exposure to metabolite as % of that for parent ([1]; both): approximately 86%
- time of maximum plasma concentrations (range) ([1]; both): 0.25 to 20.00 h
- total exposure to metabolite based on AUC(0-last) as % of that for parent ([1]; both): approximately 127%
- AUC(0-last), Adj Geo Mean ([1]; both, po): 5530 ng·h/mL
- AUC(0-last), Ratio of adj geo means Fed/Fasted ([1]; both, po): 136.34%
- Cmax, Adj Geo Mean ([1]; both, po): 635 ng/mL
- Cmax, Ratio of adj geo means Fed/Fasted ([1]; both, po): 112.17%
- Tmax Median ([1]; both, po): 6.000 h
- concentration at 1 h ([2]; Plasma Concentration, Mean): 1080 ng/mL
- concentration at 4 h ([2]; Plasma Concentration, Mean): 1300 ng/mL
- concentration at 1 h ([2]; Plasma Concentration, Median): 592 ng/mL
- concentration at 4 h ([2]; Plasma Concentration, Median): 920 ng/mL
- concentration at 1 h [2, 3]: 910 ng/mL
- concentration at 4 h [2, 3]: 1170 ng/mL
- Plasma Concentration, Min ([2]; both): 20.0 ng/mL
- Plasma Concentration, Q1 ([2]; both): 20.0 ng/mL
- steady state reached by ([2]; both): ≤ 12 Week
- Plasma Concentration, Mean ([2]; both, 1 h): 909.9 ng/mL
- Plasma Concentration, Median ([2]; both, 1 h): 614.0 ng/mL
- Plasma Concentration, Min ([2]; both, 4 h): 20.0 ng/mL
- accumulation in plasma after once- or twice-daily dosing [2]: substantial accumulation
- effect of age on steady-state plasma concentration [2]: no difference
- effect of mild renal insufficiency on steady-state plasma concentration [2]: no discernible difference
- steady-state plasma concentrations versus endogenous levels [2]: at least an order of magnitude higher than endogenous levels
